Data published in patent US20250161399A1, “TARGETING SLC46A2-MEDIATED MUROPEPTIDE TRANSPORT TO TREAT PSORIASIS” (University of Massachusetts, priority 2021, published 2025).
Entries after “also recorded” stand apart in the source; their conditions may differ. Peptide text beside a SMILES is read from it. * marks the point of attachment. Cbz = O=C(OCc1ccccc1)*; CH2F = FC*

Assays:
[1] = tested on: primary mouse keratinocytes; test: keratinocyte cell permeabilization assay (Sytox dye uptake, live cell imaging); format: cell-based; details: WT keratinocytes, 30 μM iE-DAP, 24 h; MTX increasing concentration, zVAD-fmk 10 μM, DMF 50 μM
Method: (§1) Adult (6-8 weeks) mouse keratinocytes were isolated from male or female animals using protocols described previously (57). In brief, tail skin was incubated in 1 mg/ml Dispase II (Roche) overnight at 4° C. The epidermis was physically removed from the dermis with tweezers following Dispase II treatment, subsequently digested with TrypLE (Thermo) for 20 min at room temperature, and keratinocytes were detached by vigorously shaking in EpiLife culture medium and filtered with a 70 μm strainer (Fisher scientific). Isolated cells were seeded at a density of 10^5 cells/cm^2 cultured with EpiLife (Gibco) in 12-well plates precoated with coating matrix (Gibco) and used between 3 and 5 days after isolation.
For cell permeabilization assays, 1×10^5 keratinocytes/well were seeded in a 96-well plate (Denville Scientific Inc.). After reaching 80% confluency, 30 μM iE-DAP was added to culture media with 1 nM Sytox red dye (Thermo) and 0.2 nM hoechst stain (Thermo). Plates were then cultured in a Cytation5 (BioTek) live imaging device and each well was imaged every 30 min for 24 hours. For analysis, Gen5 software were used to count the total number of Hoechst-stained nuclei and the total number of permeabilized cells were quantified as the number of Sytox positive nuclei. The Percentage of Sytox^+ cells was then calculated and plotted.

[2] = tested on: primary mouse keratinocytes; test: cytokine ELISAs from primary keratinocyte culture media; format: cell-based
Method: as §1
For cytokine ELISAs, primary keratinocytes were either mock-treated or treated with 8 μM TCT or 30 μM iE-DAP for 24 h Culture medium was harvested and centrifuged at 500 g for 15 mins and analyzed using ELISA kits detecting CXCL1 (KC), IL-6, TNF-α, IL-1α and IL-1β (R&D systems) following the manufacturer's protocols. In brief, 96-well ELISA plates were coated with capture antibody overnight at room temperature. The next day, the plate was washed three times with wash buffer and incubated with harvested media (100 μl) for 2 h followed by three washes and then probed with biotin-labelled detection antibody for 2 h. After three washes with wash buffer, plates were incubated with HRP-streptavidin for 20 min at room temperature (RT), developed with TMB (3,3′,5,5″-tetramethylbenzidine) substrate for 20 min at RT, and then stopped with IN sulfuric acid. Plate was analyzed at 450 nm with wavelength correction at 540 nm.

Slc46a2 = biological target: T1, Slc46a2 (Mus musculus, UniProt Q8CA03); test: click-muropeptide uptake into keratinocytes (CalFluor 488 Azide, confocal imaging and lysate fluorescence); format: cell-based; details: WT or Nod1−/− keratinocytes, 30 μM click-iE-DAP; MTX 250 μM or unlabeled iE-DAP 30 μM
T1 construct: primary mouse keratinocytes, which express Slc46a2 and Nod1; endogenous in cells; host or cells: primary mouse epidermal keratinocytes (WT or Nod1-/-; Slc46a2-/- cells served as the negative control)
T1 sequence (Q8CA03 1-479): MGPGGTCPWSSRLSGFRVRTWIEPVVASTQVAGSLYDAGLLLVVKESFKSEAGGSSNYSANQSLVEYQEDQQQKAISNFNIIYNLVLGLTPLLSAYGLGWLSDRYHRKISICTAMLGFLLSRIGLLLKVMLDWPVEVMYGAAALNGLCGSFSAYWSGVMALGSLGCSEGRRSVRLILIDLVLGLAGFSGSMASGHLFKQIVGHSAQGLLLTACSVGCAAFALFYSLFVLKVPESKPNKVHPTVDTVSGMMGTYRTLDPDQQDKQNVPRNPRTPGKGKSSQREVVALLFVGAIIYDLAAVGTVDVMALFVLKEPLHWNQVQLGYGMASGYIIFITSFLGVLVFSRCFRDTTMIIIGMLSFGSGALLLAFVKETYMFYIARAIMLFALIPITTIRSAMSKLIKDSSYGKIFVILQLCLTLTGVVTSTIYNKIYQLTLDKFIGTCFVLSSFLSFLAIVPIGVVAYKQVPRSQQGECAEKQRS
Method: For visualization, mouse keratinocytes were challenged with click-iE-DAP (30 μM) or click-MDP (20 μM) 37° C. for 30-60 min, cells washed 2× with 1×PBS to remove access of click-muropeptides and fixed with 4% paraformaldehyde in PBS at RT for 10 min. Cells were permeabilized with 1% Triton-X in PBS for 10 min at RT and blocked with 1% BSA in PBS. These permeabilized cells were then incubated in click-reaction conditions (250 μM CuSO4, 35 μM BTAA, 60 μM sodium ascorbate) with 2.5 μM CalFluor 488 Azide at RT for 30 mins. Cells were then washed and mounted on slides, with DAPI containing mounting media. Slides were imaged with a Leica SP8 confocal microscope.

[3] = tested on: primary mouse keratinocytes; test: lipid nanoparticle (NP) mediated iE-DAP/dye delivery into keratinocytes; format: cell-based; details: keratinocytes pretreated with 250 μM MTX, iE-DAP delivered by dye-loaded NP
Method: Briefly, a matrix of DOPC/DSPC/DOPG/cholesterol/DSPE-mPEG at 33.5/33.5/20/10/3 mol % was prepared in chloroform and dry lipid/cholesterol films were allowed to form. Films were rehydrated with iE-DAP (Invivogen) prepared in PBS at 1.2 mg/mL and these samples were vortexed for 30 sec every 10 min for 1 hr at 56° C. to complete this process. Following rehydration, samples were ultrasonicated in alternating 20 sec pulse/10 sec off cycles for 5 min at an amplitude of 20% to form iEDAP-encapsulated lipid-based NPs. Samples were dialyzed for 1 hr following ultrasonication. Dynamic light scattering (DLS) and zeta potential measurements using a Malvern Zetasizer were used to characterize NP size and surface charge, respectively. […] Quant-IT assay (Thermo Fisher Scientific) measurements were used to measure average iE-DAP encapsulation at 998.1 μg/mL and an average encapsulation efficiency of 57.1%. To visualize iE-DAP-encapsulated NPs, 0.1 mol % of the fluorescent lipid tracer dye 3,3′-dioctadecyloxacarbocyanine perchlorate (DiO) were added to the lipid/cholesterol films. Mouse keratinocytes were challenged iE-DAP loaded NPs, or control empty NPs, at 37° C. at 10 μg/ml final concentration (˜30 μM iE-DAP), and then monitored for Sytox uptake assay for 24 h, as described above. […]

[4] = tested on: psoriasis-like inflammation on mouse pinnae; test: IMQ model of psoriasis-like dermatitis (ear thickness, H&E histology); format: in vivo
Method: Pinnae were harvested 3 h after DAP-muropeptide administration or 7 d after topical application of IMQ and fixed in PBS containing 10% formalin. Paraffin-embedded sections were cut at […], stained with H&E, and imaged by light microscopy.
The induction of psoriasis-like inflammation on mouse pinnae was done as previously described (60). In brief, mice were treated daily for up to 6 d with 5 mg 5% IMQ cream topically applied on one pinna, while the other pinnae were treated with a similar amount of Vaseline, as vehicle control. Ear thickness was measured daily using a digital caliper. The change in ear thickness over time was reported as the difference related to the first day of topical application. For the bacterial assisted psoriasis model, 5 mg 5% IMQ cream was topically applied on one pinna, while the contralateral pinna was treated with a similar amount of Vaseline for 3 days, and then 10^7 CFU of C. accolens, in 50% glycerol, was topically applied daily to both pinnae. Ear thickness was measured daily using a digital caliper. C. accolens, originally from ATCC, was provided by J. Kang and grown as described (61).

[5] = tested on: mouse skin (NOD1/NOD2 response); test: neutrophil recruitment to pinnae after intradermal injection; format: in vivo; details: for neutrophil recruitment response in Slc46a2-deficient mice compared to WT: Tri-DAP 25 μM, C12-iE-DAP 20 μM
Method: […] After 3 h, both ears were individually harvested, and stored in ice cold PBS on ice until further processing for flow cytometry staining.
Pinnae were cut into small pieces and incubated for 30 min at 37° C. in a solution of 1 mg/ml collagenase (Sigma) in DMEM media containing 10% FBS. Ice-cold FACS buffer (2% FBS in PBS) was added to skin samples to stop the reaction. Then samples were placed on 70 μm cell strainers and ground using a cell strainer pestle to create a single cell suspension. Cells were spun at 180 g for 5 min at 4° C. and resuspended in FACS buffer.
(§2) 1×10^6 cells were stained with F4/80-PE/Cy7 (1:200), CD45-alexaflour700 (1:200) and Gr1-PE (1:200) for 30 min on ice in the dark. Samples were washed three times with FACS buffer and analyzed with a Cytek Aurora cytometer. Results were analyzed with FlowJo software (Tree Star, USA).

[6] = tested on: HSE dermal fibroblasts (CXCL8); test: CXCL8 induction in Human Skin Equivalents (HSE) skin organoids; format: cell-based; details: concomitant treatment with iE-DAP
[7] = tested on: mouse peritoneum (NOD1/NOD2 response); test: neutrophil recruitment to the peritoneum after intraperitoneal injection; format: in vivo; details: 3 h, iE-DAP 30 μM, MDP 10 μM
Method: For peritoneal cell extraction, animals were euthanized and cells from peritoneal cavity were isolated by peritoneal lavage (58). Harvested cell suspensions were centrifuged at 300 g for 5 min at 4° C. and resuspended in FACS buffer.
as §2

[8] = tested on: primary dermal fibroblasts; test: CXCL1 (KC) ELISA from primary dermal fibroblasts; format: cell-based, mouse; details: iE-DAP 30 μM or IL-1α 10 ng/ml, 24 hrs
Method: Mouse dermal fibroblasts were isolated as described herein. In brief, mouse pinnae were incubated on a table shaker (200 rpm) in a collagenase D-pronase solution [2.5 mg/ml collagenase-D (Sigma), 20 mg/ml pronase (Sigma) diluted in 1M Tris, pH 8.0 and containing 1 μM EDTA (Sigma)] for 90 min at 37° C. Fibroblasts were then isolated by pressing digested skin through a 70 μm cell strainer, and cells were collected and cultured in RPMI 1640 medium with 10% FBS, 50 μM 2-mercaptoethanol, 100 μM asparagine, 2 mM glutamine, 1% penicillin-streptomycin for 2-4 passages before stimulating with immune elicitors, and/or harvesting media or cells.
For cytokine ELISAs from dermal fibroblast, cells were challenged with IL-1α (10 ng/ml) or 30 μM iE-DAP for 24 h, and media was collected and processed for ELISA as described above.

[9] = intradermal, 3 h, TCT 8 μM, iE-DAP 30 μM, MDP 10 μM

For `CN(Cc1cnc2nc(N)nc(N)c2n1)c1ccc(C(=O)N[C@@H](CCC(=O)O)C(=O)O)cc1` [MTX, methotrexate], the “inhibition of DAP-muropeptide triggered keratinocyte permeabilization (Sytox uptake)” value [1] was “inhibited”, the “IL-1α release in iE-DAP treated WT keratinocytes” value ([2]; 250 μM MTX along with 30 μM iE DAP, 24 hours) was “prevented” and the “inhibition of DAP-muropeptide triggered IL-1α release” value ([2]; keratinocytes, iE-DAP, increasing concentrations of MTX, dose dependent) was “inhibited”. The “effect on cytosolic accumulation / cellular uptake of click-iE-DAP” value (Slc46a2) was “blocked; also recorded: interfered”, the “effect on NP-mediated iE-DAP / dye delivery” value [3] was “failed to interfere; also recorded: did not affect” and the “residual inflammation in Slc46a2−/− and Nod1−/− skin” value ([4]; Slc46a2−/− and Nod1−/− mice, IMQ daily with topical 50 μl of 250 μM MTX) was “no observable effect; also recorded: minimalistic effect”. The “psoriasis like inflammation in WT skin” value ([4]; WT mice, IMQ daily with topical 50 μl of 250 μM MTX) was “reduced; also recorded: less inflamed”.

For `C[C@H](N)C(=O)N[C@H](CCC(=O)NC(CCCC(N)C(=O)O)C(=O)O)C(=O)O` (stereo partly shown) [Tri-DAP], the “neutrophil recruitment response in Slc46a2-deficient mice compared to WT” value (“neutrophil recruitment response … compared to WT” for short) [5, 9] was “significantly reduced”.

`COC(=O)C[C@H](NC(=O)[C@H](C)NC(=O)[C@@H](NC(=O)OCc1ccccc1)C(C)C)C(=O)CF` [zVAD-FMK] (Cbz-Val-Ala-Asp(OMe)-CH2F) was tested, and the “inhibition of DAP-muropeptide triggered keratinocyte permeabilization (Sytox uptake)” value [1] was “prevented”.

With `CCCCCCCCCCCC(=O)N[C@H](CCC(=O)NC(CCCC(N)C(=O)O)C(=O)O)C(=O)O` (stereo partly shown) [C12-iE-DAP] the “neutrophil recruitment response … compared to WT” value [5, 9] was “not significantly changed”.

IL-1Ra: recombinant IL-1R antagonist was tested, and the “effect on iE-DAP induced CXCL8 in HSE dermis” value [6] was “prevented” and the “effect on iE-DAP induced CXCL8 in HSE dermis” value ([6]; listed as IL-IRA) was “blocked”.

With tracheal cytotoxin [TCT] the “neutrophil / leukocyte recruitment to the skin in WT mice” value ([5]; intradermal 10 μl, TCT 8 μM, LPS 10 μg/ml, iE-DAP 30 μM, 1 to 24 h) was “rapid and robust; also recorded: robust and rapid”, the “time of peak leukocyte recruitment” value ([5]; intradermal TCT, monitored between 1 and 24 h) was 3 h and the “neutrophil recruitment response … compared to WT” value [5, 9] was “significantly reduced”.

With `CC(C)Cn1cnc2c(N)nc3ccccc3c21` [IMQ, imiquimod] the “inflammation in Slc46a2- and Nod1-deficient mice” value ([4]; 7-day course of topical IMQ) was “markedly resistant” and the “inflammation in WT mice (ear thickness, H&E histology)” value ([4]; 7-day course of topical IMQ, WT mice) was “expected psoriatic-like inflammation”.

With `CC(=O)N[C@H]1C(O)O[C@H](CO)[C@@H](O)[C@@H]1O[C@H](C)C(=O)N[C@@H](C)C(=O)N[C@H](CCC(=O)O)C(N)=O` (mixture of isomers) [MDP, muramyl dipeptide] the “neutrophil recruitment response in Slc46a3−/− mice” value ([5]; intradermal, 3 h, MDP 10 μM) was “significantly defective”, the “neutrophil recruitment response … compared to WT” value [5, 9] was “responded normally” and the “neutrophil recruitment response in Slc46a2−/− mice” value [7] was “responded like wild-type”. For the same molecule, the “neutrophil recruitment response in Slc46a3−/− mice” value [7] was “failing to respond”.

B1: IL-1α: cytokine used to challenge dermal fibroblasts (10 ng/ml) (protein, UniProt P01583 113-271, looked up)
Interleukin-1 alpha: SAPFSFLSNVKYNFMRIIKYEFILNDALNQSIIRANDQYLTAAALHNLDEAVKFDMGAYKSSKDDAKITVILRISKTQLYVTAQDEDQPVLLKEMPEIPKTITGSETNLLFFWETHGTKNYFTSVAHPNLFIATKQDYWVCLAGGPPSITDFQILENQA
B1 was tested, and the “CXCL1 (KC) response of primary dermal fibroblasts” value [8] was “induced”.
